Experimental data taken from patent publication US9790169B2, “IDO inhibitors” (BRISTOL-MYERS SQUIBB COMPANY, priority 2015, dated 2017).

biological target: human IDO1 (Homo sapiens, UniProt P14902); assay: Assessment of human IDO-1 inhibitory activity in HEK cells (human IDO1/HEK293 cells, kynurenine read-out with Ehrlich reagent, absorbance 490 nm); assay type: cell-based; set-up: expressed in transfected cells; details: HEK Human IDO-1 cellular assay
Procedure, shortened: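 HEK293 cells stably expressing human IDO1 were seeded at 10,000 per well in phenol red-free RPMI with 10% FBS, treated with compound for 20 h at 37 °C. Kynurenine was measured after TCA (0.2% final) and 30 min at 50 °C, using Ehrlich reagent, A490. IC50 normalised to DMSO (0%) and 500 nM reference standard (100%).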

human IDO1, sequence (P14902 whole entry): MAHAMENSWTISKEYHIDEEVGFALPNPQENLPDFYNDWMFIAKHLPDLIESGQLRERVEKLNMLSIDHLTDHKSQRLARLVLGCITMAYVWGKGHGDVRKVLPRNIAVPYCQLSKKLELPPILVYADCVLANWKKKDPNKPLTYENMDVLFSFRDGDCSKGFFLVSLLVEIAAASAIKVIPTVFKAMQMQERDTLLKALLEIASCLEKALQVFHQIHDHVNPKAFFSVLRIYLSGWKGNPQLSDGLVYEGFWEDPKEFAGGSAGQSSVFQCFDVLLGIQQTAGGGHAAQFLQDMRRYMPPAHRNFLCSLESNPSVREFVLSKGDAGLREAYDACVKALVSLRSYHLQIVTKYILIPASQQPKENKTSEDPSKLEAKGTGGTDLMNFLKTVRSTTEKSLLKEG

First: CCN(c1ccc(C(C)(C)CC(=O)O)cc1Nc1ccc(F)cc1)C1CCC(C)(O)CC1 (stereo not drawn) [Example 2, 3-(4-(ethyl(4-hydroxy-4-methylcyclohexyl)amino)-3-((4-fluorophenyl)amino)phenyl)-3-methylbutanoic acid]
Second: CCOc1ncc(Nc2cc(C(C)(C)CC(=O)O)ccc2N(CC)C2CCC(C)(O)CC2)cn1 (stereo not drawn) [Example 3, 3-(3-((2-ethoxypyrimidin-5-yl)amino)-4-(ethyl(4-hydroxy-4-methylcyclohexyl)amino)phenyl)-3-methylbutanoic acid]
The IC50 of the first is lower: less than 5 nM for the first, greater than 50 nM for the second. The first is the more potent here.

`CCc1ccc(Nc2cc([C@@H](CC)CC(=O)O)ccc2N(CC)C2CCOCC2)cc1` (single isomer, unassigned) [Example 477] and `CCN(c1ccc([C@@H](COC)CC(=O)O)cc1Nc1ccc(F)cc1)C1CCOCC1` (single isomer, unassigned) [Example 375] cannot be ordered by IC50: less than 5 nM for the first, less than 5 nM for the second.

`CCOc1ccc(Nc2cc([C@@H](CC)CC(=O)O)ccc2N2CCOC[C@@H]2C(C)C)cc1` (single isomer, unassigned) [Example 82] and `CC[C@H](CC(=O)O)c1ccc(N2CCOC[C@@H]2C(C)C)c(Nc2ccc(Cl)cc2)c1` (single isomer, unassigned) [Example 89] cannot be ordered by IC50: less than 50 nM for the first, less than 5 nM for the second.

`COCC(CC(=O)O)c1ccc(N(CC2CC2)C2CCOCC2)c(Nc2ccc(Cl)c(OCC(F)(F)F)c2)c1` (single isomer, unassigned) [Example 682, 3-(3-((4-chloro-3-(2,2,2-trifluoroethoxy)phenyl)amino)-4-((cyclopropylmethyl) (tetrahydro-2H-pyran-4-yl)amino)phenyl)-4-methoxybutanoic acid] and `COCC(CC(=O)O)c1ccc(N(CC2CC2)C2CCOCC2)c(Nc2ccc(Cl)c(OCC3CC3)c2)c1` (single isomer, unassigned) [Example 683, 3-(3-((4-chloro-3-(cyclopropylmethoxy)phenyl)amino)-4-((cyclopropylmethyl) (tetrahydro-2H-pyran-4-yl)amino)phenyl)-4-methoxybutanoic acid] cannot be ordered by IC50: greater than 50 nM for the first, greater than 50 nM for the second.

`CCc1ccc(Nc2cc([C@H](CC)CC(=O)O)ccc2N(CC(C)(C)O)C2CCCCC2)cc1` (single isomer, unassigned) [Example 239] and `CC[C@H](CC(=O)O)c1ccc(N(CC(C)(C)O)C2CCCCC2)c(Nc2ccc(F)cc2)c1` (single isomer, unassigned) [Example 236] cannot be ordered by IC50: less than 50 nM for the first, less than 50 nM for the second.

`CCC(CC(=O)O)c1cc(F)c(N(CC(C)C)CC(C)C)c(NC(=O)Cc2ccc(C)cc2F)c1` (single isomer, unassigned) [Example 1094 E1] and `CCC(CC(=O)O)c1ccc(N(CC(C)C)CC(C)C)c(NC(=O)Cc2ccc(C#N)cc2)c1` (single isomer, unassigned) [Example 1104, 3-(3-(2-(4-Cyanophenyl)acetamido)-4-(diisobutylamino)phenyl)pentanoic acid] cannot be ordered by IC50: less than 5 nM for the first, less than 5 nM for the second.

Compared with `CCOc1ncc(Nc2cc([C@@H](CC)CC(=O)O)ccc2N(CC(C)(C)O)C2CCCCC2)cn1` (single isomer, unassigned) [Example 229], `CCOc1ncc(Nc2cc(C(C)CC(=O)O)ccc2N(CC(C)(C)O)C2CCCCC2)cn1` (single isomer, unassigned) [Example 50, 3-(4-(cyclohexyl(2-hydroxy-2-methylpropyl)amino)-3-((2-ethoxypyrimidin-5-yl)amino)phenyl)butanoic acid] is higher in IC50: less than 50 nM for the first, greater than 50 nM for the second.

`CCOc1ncc(Nc2cc([C@@H](CC)CC(=O)O)ccc2N(CC2CC2)CC(C)(C)O)cn1` (single isomer, unassigned) [Example 270] and `CC[C@H](CC(=O)O)c1ccc(N2CCC[C@@H]2C(C)(C)O)c(Nc2cnc(OCC3CC3)nc2)c1` (single isomer, unassigned) [Example 842] cannot be ordered by IC50: greater than 50 nM for the first, greater than 50 nM for the second.

`COCC(CC(=O)O)c1ccc(N(CC(C)C)C2CCCCC2)c(NC(=O)Nc2ccccc2F)c1` (racemic) [Example 983, (+/−)-3-(4-(Cyclohexyl(isobutyl)amino)-3-(3-(2-fluorophenyl)ureido)phenyl)-4-methoxybutanoic acid] and `CCOc1ccc(NC(=O)Nc2cc(C(COC)CC(=O)O)ccc2N(CC(C)C)C2CCCCC2)cc1` (single isomer, unassigned) [Example 1231, 3-(4-(Cyclohexyl(isobutyl)amino)-3-(3-(4-ethoxyphenyl)ureido)phenyl)-4-methoxybutanoic acid] cannot be ordered by IC50: less than 5 nM for the first, less than 50 nM for the second.

Going from `CCC(CC(=O)O)c1ccc(N(CC(C)C)C2CCCCC2)c(NC(=O)Cc2cc(F)ccc2F)c1` (single isomer, unassigned) [Example 1098 E1] to `CCOc1ccc(C(=O)Nc2cc(C(CC)CC(=O)O)ccc2N(CC(C)C)C2CCCCC2)cc1` (racemic) [Example 1073, 3-(4-(Cyclohexyl(isobutyl)amino)-3-(4-ethoxybenzamido)phenyl)pentanoic acid], the IC50 rises from less than 5 nM to greater than 50 nM. The first is the more potent here.

`CCN(c1ccc([C@H](COC)CC(=O)O)cc1NC(=O)Nc1cnc(C)nc1)C1CCOCC1` (single isomer, unassigned) [Example 438] and `CCN(c1ccc([C@@H](COC)CC(=O)O)cc1NC(=O)Nc1cc(C)on1)C1CCOCC1` (single isomer, unassigned) [Example 428] cannot be ordered by IC50: greater than 50 nM for the first, greater than 50 nM for the second.

`CCOc1ccc(CC(=O)Nc2cc(C(CC(=O)O)C3CC3)ccc2N(CC(C)C)C2CCCCC2)cc1` (single isomer, unassigned) [Example 1248, 3-(4-(Cyclohexyl(isobutyl)amino)-3-(2-(4-ethoxyphenyl)acetamido)phenyl)-3-cyclopropylpropanoic acid] and `CCc1ccc(Nc2cc(C(CC)CC(=O)O)ccc2N(CC(C)C)C2CCCCC2)cc1` (single isomer, unassigned) [Example 309, 3-(4-(cyclohexyl(isobutyl)amino)-3-((4-ethylphenyl)amino)phenyl)pentanoic acid] cannot be ordered by IC50: less than 5 nM for the first, less than 5 nM for the second.

`CCC(CC(=O)O)c1cc(F)c(N(CC(C)C)CC(C)C)c(NC(=O)Cc2ccc(C)cc2F)c1` (racemic) [Example 1083] and `CCC(CC(=O)O)c1ccc(N(CC(C)C)C(C)C)c(Nc2ccc(Cl)cc2)c1` (single isomer, unassigned) [Example 727, 3-(3-((4-Chlorophenyl)amino)-4-(isobutyl(isopropyl)amino)phenyl)pentanoic acid] cannot be ordered by IC50: less than 5 nM for the first, less than 5 nM for the second.

`CCN(c1ccc(C(CC(=O)O)c2ccccc2)cc1NC(=O)Nc1ccc(C)cc1)C1CCOCC1` (single isomer, unassigned) [Example 584, 3-(4-(Ethyl(tetrahydro-2H-pyran-4-yl)amino)-3-(3-(p-tolyl)ureido)phenyl)-3-phenylpropanoic acid] and `CC[C@@H](CC(=O)O)c1ccc(N(CC)C2CCOCC2)c(NC(=O)Nc2ccc(Cl)nc2)c1` (single isomer, unassigned) [Example 495] cannot be ordered by IC50: greater than 50 nM for the first, greater than 50 nM for the second.

Compared with `CCOc1ccc(NC(=O)Nc2cc(C(CC)CC(=O)O)c(F)cc2N(CC(C)C)C2CCCCC2)cc1` (single isomer, unassigned) [Example 1108, 3-(4-(Cyclohexyl(isobutyl)amino)-5-(3-(4-ethoxyphenyl)ureido)-2-fluorophenyl)pentanoic acid], `CC[C@H](CC(=O)O)c1ccc(N(CC(C)C)C2CCS(=O)(=O)CC2)c(NC(=O)Nc2ccc(C)cc2)c1` (single isomer, unassigned) [Example 209] is higher in IC50: less than 5 nM for the first, greater than 50 nM for the second. The first is the more potent here.

`CCC(CC(=O)O)c1ccc(N2C[C@@H]3C[C@H]2CN3Cc2ccccc2)c(Nc2ccc(C)cc2)c1` (single isomer, unassigned) [Example 666 E1] and `CC[C@H](CC(=O)O)c1ccc(N2C[C@@H](C)O[C@@H](C)C2)c(Nc2ccc(Cl)cc2)c1` (single isomer, unassigned) [Example 761] cannot be ordered by IC50: less than 5 nM for the first, less than 50 nM for the second.

`CCCN(c1ccc([C@@H](COC)CC(=O)O)cc1Nc1ccc2c(c1)OC(F)(F)O2)C1CCOCC1` (single isomer, unassigned) [Example 561] and `CCN(c1ccc([C@@H](COC)CC(=O)O)cc1NC(=O)Nc1cc(C)no1)C1CCOCC1` (single isomer, unassigned) [Example 429] cannot be ordered by IC50: greater than 50 nM for the first, greater than 50 nM for the second.

First: Cc1cc(NC(=O)Nc2cc(C(CC(=O)O)C3CC3)ccc2N(CC(C)C)C2CCOCC2)no1 (single isomer, unassigned) [Example 1201 Enantiomer 1, 3-Cyclopropyl-3-(4-(isobutyl(tetrahydro-2H-pyran-4-yl)amino)-3-(3-(5-methylisoxazol-3-yl)ureido)phenyl)propanoic acid]
Second: COCC(CC(=O)O)c1ccc(N(CC(C)C)C2CCOCC2)c(NC(=O)Nc2cc(C)on2)c1 (single isomer, unassigned) [Example 1213, 3-(4-(Isobutyl(tetrahydro-2H-pyran-4-yl)amino)-3-(3-(5-methylisoxazol-3-yl)ureido)phenyl)-4-methoxybutanoic acid]
The IC50 of the first is lower: less than 50 nM for the first, greater than 50 nM for the second.

`CCN(c1ccc(C(C)(C)CC(=O)O)cc1Nc1ccc(C#N)cc1)C1CCOCC1` [Example 160, 3-(3-((4-cyanophenyl)amino)-4-(ethyl(tetrahydro-2H-pyran-4-yl)amino)phenyl)-3-methylbutanoic acid] and `CC[C@@H](CC(=O)O)c1ccc(N(CC)C2CCCCC2)c(Nc2ccc(Cl)cc2)c1` (single isomer, unassigned) [Example 279] cannot be ordered by IC50: less than 5 nM for the first, less than 5 nM for the second.

Going from `CC[C@H](CC(=O)O)c1ccc(N2CCOC[C@@H]2C(C)C)c(Nc2ccc(C#N)cc2)c1` (single isomer, unassigned) [Example 92] to `CC[C@@H](CC(=O)O)c1ccc(N(CC)C2CCOCC2)c(Nc2cn3ccnc3cn2)c1` (single isomer, unassigned) [Example 483], the IC50 rises from less than 5 nM to greater than 50 nM.

`CCN(c1ccc([C@H](COC)CC(=O)O)cc1NC(=O)Nc1cc(C)no1)C1CCOCC1` (single isomer, unassigned) [Example 440] and `CC[C@@H](CC(=O)O)c1ccc(N(CC)C2CCOCC2)c(Nc2cnc3cnccn23)c1` (single isomer, unassigned) [Example 472] cannot be ordered by IC50: greater than 50 nM for the first, greater than 50 nM for the second.
